Read-outs that look alike come from different tables or passages of the source.
How the values were obtained:
[1] = Acute toxicity test in rat by the oral route; format: in vivo; conditions: in vivo, male rat, in olive oil, after 7 days
Source text: (§1) Acute toxicity test in rat by the oral route

rat = test: Acute toxicity test in rat by the oral route; format: in vivo; conditions: Table 1, rat, 10080 min
Source text: as §1

[2] = system: two-spotted spider mites (Tetranychus urticae Koch); test: Mortality test with two-spotted spider mites by spray application method; format: in vivo; conditions: 48 h, 200 ppm spray, two days, read-out: Percent decrease of population (%)
Experimental: Mortality test with two-spotted spider mites (Tetranychus urticae Koch) by spray application method
To a 5% aqueous solution of acetone was added dropwise a small amount of Tween-20 (polyethylene sorbitan monolaurate) as a surfactant. […] From 30 to 50 adult two-spotted spider mites (Tetranychus urticae Koch) were released on the leaves of kidney-bean plants in the dicotyledonous stage in a pot 9 cm in diameter, followed by a spray application of the above solution. The pot was kept in a constant-temperature chamber at 26° C. and two days later the mites were examined for deaths. The percent decrease of population was then calculated.

[3] = system: killifish (Orizias latipes); test: Fish toxicity test with killifish; format: in vivo; conditions: Table 1; 48 hrs.
Experimental: (§2) Fish toxicity test with killifish (Orizias latipes)
(§3) An acetone solution of one of the test compounds as mentioned in Table 8 was prepared by adding said test compound to 15 ml of acetone. To 10 liters of water was added a predetermined amount of the above acetone solution and the mixture was stirred thoroughly to prepare an aqueous solution containing the test compound in a predetermined concentration. This was used as a test water. After the each test water was moderately aerated, ten killifishes (Orizias latipes) with a body weight of about 0.25 g and a body length of about 2.5 cm were released into said each test water which was maintained at 25±1° C. After 48 hours, the test fish was examined for death. The TLm (median tolerance limit, ppm) was determined.

[4] = Fish toxicity test with killifish; format: in vivo, Orizias latipes; conditions: water, killifish, 25±1° C., read-out: TLm (48 hrs.)
Experimental: as §2, §3

[5] = system: tobacco cutworm (Prodenia litura); test: Utility Example-5: spray on soy bean leaves, tobacco cutworm larvae; format: in vivo; conditions: 48 h; 13 ppm; 2 days
Experimental: An acetone solution of one of the test compounds as mentioned in Table 13 and Tween-20 (the same surfactant as mentioned hereinbefore) was prepared. This acetone solution was diluted with water to prepare a solution containing the test compound in a predetermined concentration. Leaves of soy bean in pots were sprayed with the above diluted solution at the rate of 20 ml/pot and, after one day, ten 3-instar larvae of tobacco cutworm (Prodenia litura) were released on the leaves. The pots were kept in a constant-temperature chamber at 25° C.

[6] = system: green rice leafhoppers (Nephotettix cincticeps Uhler); test: Utility Example-4: 0.2% dust on rice seedlings, green rice leafhoppers; format: in vivo; conditions: 5 kg per 10 ares, 24 hours, resistant to organophosphorus and carbamate pesticides
Source text: A 0.2% dust preparation of each of the cis- and trans-isomers and a 50:50 mixture of the cis- and trans-isomers of Compound (1) and of Compound (2) as prepared by the procedure described in Formulation Example-3 was applied to rice seedlings by means of a bell-jar duster at the rate of 5 kg per 10 ares. […] In all cases, the mortality was not less than 90%.

[7] = system: small brown planthoppers (Laodelphax striatellus Fallen); test: Utility Example-3: spray on rice plants, small brown planthoppers; format: in vivo; conditions: 7 ml/pot, 24 hours
Experimental: (§4) A 30% emulsifiable concentrate of each of the cis- and trans-isomers and a 50:50 mixture of the cis- and trans-isomers of Compound (1) and of Compound (2) as prepared by the procedure described in Formulation Example-1 was diluted with water to a concentration of 80 ppm as active compound. Rice plants 4 weeks after sowing in pots (each pot 6 cm in diameter, 7 seedlings) were sprayed with the above diluted solution at the rate of 7 ml/pot and, after drying in the air, each pot was covered with a wire-mesh cage. Then, 30 adult small brown planthoppers (Laodelphax striatellus Fallen) were released into the cage. The pots were kept in a constant-temperature chamber at 25° C. […] In all groups, the mortality was not less than 90%.

[8] = system: tobacco cutworms (Prodenia litura Fabricius); test: Mortality test with tobacco cutworms by topical application method; format: in vivo; conditions: 24 h
Experimental: Mortality test with tobacco cutworms (Prodenia litura Fabricius) by topical application method
Using a microsyringe, 0.5 μl of the above solution was dripped onto the thoracic adbominal region of each of 3-instar tobacco cutworm (Prodenia litura Fabricius) larvae. […] The test larvae were used in groups of 20 individuals each.

[9] = system: green rice leafhoppers (Nephotettix cincticeps); test: Utility Example-6: 0.5% dust on rice seedlings, green rice leafhoppers; format: in vivo; conditions: 1 kg per 10 ares, 24 hours, resistant to organophosphorus and carbamate pesticides
Source text: A 0.5% dust preparation of each of the cis- and trans-isomers and a 50:50 mixture of the cis- and trans-isomers of Compound (1) and of Compound (2) as prepared by the procedure described in Formulation Example-4 was applied to rice seedlings by means of a bell-jar duster at the rate of 1 kg per 10 ares. Then, 30 green rice leafhoppers (Nephotettix cincticeps) resistant to organophosphorus and carbamate pesticides were released. […] In all cases, the mortality was not less than 90%.

[10] = system: green rice leafhoppers (Nephotettix cincticeps Uhler); test: Utility Example-2: spray on rice plants, green rice leafhoppers; format: in vivo; conditions: 7 ml/pot, 24 hours
Experimental: as §4, with “and” for “and of”, “above” for “above diluted”, “Then, 20 female” for “Then, 30”, “adult green rice leafhoppers (Nephotettix cincticeps Uhler)” for “adult small brown planthoppers (Laodelphax striatellus Fallen)”, “The caged” for “The”, “mortality values were” for “mortality was”

[11] = system: brown planthoppers (Nilaparvata lugens); test: Utility Example-7: 0.5% dust on rice seedlings, brown planthoppers; format: in vivo; conditions: 1 kg per 10 ares, 24 hours
Source text: A 0.5% dust preparation of each of the cis- and trans-isomers and a 50:50 mixture of the cis- and trans-isomers of Compound (1) and of Compound (2) as prepared by the procedure described in Formulation Example-4 was applied to rice seedlings, on which 30 adult brown planthoppers (Nilaparvata lugens) were released, by means of a bell-jar duster at the rate of 1 kg per 10 ares. […] In all cases, the mortality was not less than 90%.

[12] = system: green rice leafhoppers (Nephotettix cincticeps Uhler); test: Mortality test with green rice leafhoppers by topical application method; conditions: Nephotettix cincticeps, in Oryza sativa, 24 h
Experimental: Mortality test with green rice leafhoppers (Nephotettix cincticeps Uhler) by topical application method
Then, the insects were kept at 25° C. with access to rice plant seedlings. The insects were used in groups of 15 individuals each.

[13] = system: rice stem borers (Chilo suppressalis Walker); test: Mortality test with rice stem borers by topical application method; format: in vivo; conditions: 24 h
Experimental: Mortality test with rice stem borers (Chilo suppressalis Walker) by topical application method
Using a microsyringe, 0.5 μl of the above solution was applied to the thoracic abdominal region of each final-instar larva of rice stem borer (Chilo suppressalis Walker). […] The test larvae were used in groups of 20 individuals each.

[14] = Fish toxicity test with guppies; format: in vivo, Lebistes reticulatus; conditions: guppy, water, guppies, 20° C., read-out: TLm (48 hrs.)
In short: (§5)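 Ten female guppies, 3–4 months old, held at 20 °C in water containing surfactant and test compound added in acetone solution. TLm (median tolerance limit, ppm) determined.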

[15] = system: guppies (Lebistes reticulatus); test: Fish toxicity test with guppies; format: in vivo; conditions: Table 1; 48 hrs.
In short: as §5

[16] = system: houseflies (Musca domestica); test: Mortality test with houseflies by topical application method; conditions: 24 h
Experimental: Mortality test with houseflies (Musca domestica) by topical application method
Each of the compounds according to this invention and the control compounds (Table 2) was accurately weighted and a 0.1% solution of each sample in acetone was prepared. Female adult houseflies (Musca domestica) resistant to organophosphorus pesticides, were anesthetized with ether and 0.5 μl or 1.0 μl of the above solution was micropipetted onto the prothoracic dorsal region of each insect. The insects were then put in a high-walled dish together with feed and the dish was covered with a wire-mesh cover and kept at a temperature of 25° C. The test insects were used in groups of 30 individuals each. After 24 hours the insects were examined for deaths and the percent mortality was calculated.

## CC1(C)C(C=C(Cl)Cl)C1C(=O)OCc1cccc(Oc2ccc(Cl)cc2)c1 (stereo not drawn) [Compound (1) cis-/trans- = 50:50, 3-(4-chlorophenoxy)benzyl 2,2-dimethyl-3-(2,2-dichlorovinyl)cyclopropanecarboxylate]
[1]
  LD50 at 168 h: > 3000 mg/kg
rat
  Acute oral toxicity to rat LD50: > 3000 mg/kg
[2]
  mortality at 200 ppm: 100%
[3]
  Toxicity to fish TLm, killifish: > 10 ppm
[4]
  LC50 at 48 h: > 10 µg/mL
[5]
  mortality at 13 ppm: 100%
[6]
  mortality: not less than 90%
[7]
  mortality at 80 ppm: ≥ 90%
[8]
  mortality at 0.0001 mg: 100%
[8]; read-out: Pesticidal effect, tobacco cutworm
  mortality at 0.0001 mg: 100%
[9]
  mortality: not less than 90%
[10]
  mortality at 80 ppm: ≥ 90%
[11]
  mortality: not less than 90%
[12]
  mortality at 0.01 µg/female: 100%
  mortality at 0.1 µg/female: 100%
  mortality at 1 µg/female: 100%
[12]; read-out: LD50 (median lethal dose), topical, green rice leafhoppers
  LD50: 1.32 mg/kg
[12]; read-out: Pesticidal effect, green rice leafhopper
  mortality at 10 ng: 100%
[13]
  mortality at 1 µg/larva: 100%
  mortality at 10 µg/larva: 100%
[13]; read-out: Pesticidal effect, rice stem borer
  mortality at 0.001 mg: 100%
[14]
  LC50 at 48 h: > 5 µg/mL
[15]
  Toxicity to fish TLm, guppy: > 5 ppm
[16]
  mortality at 0.5 µg/female: 100%
  mortality at 1 µg/female: 100%
[16]; read-out: Pesticidal effect, housefly
  mortality at 0.001 mg: 100%

Source: patent US4389412A, “Substituted cyclopropanecarboxylic acid esters and pesticidal compositions containing the same as active ingredient” (priority 1979, dated 1983)
